The source of these data is PubChem BioAssay AID504322 (Emory University Molecular Libraries Screening Center, 2011).

Activity calls are given as the source filed them. How the calls were made is not given here.

The subject of the assay is CHOP reporter cell assay, percent of control. Nature of the assay: CHOP reporter inhibitor potency, dose response, cell-based (AID 504322).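 Further: CHO cells carrying a CHOP reporter stimulated with tunicamycin to induce ER stress; potency is for inhibition of the stress-induced reporter signal.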

Take `CC(C)(C)c1ccc(OCC(=O)N/N=C/C2CC=CCC2)cc1` (stereo unspecified): the IC50 (as a rule, the concentration needed to halve the response being measured) was 7.48 µM (inactive).
For `O=S(=O)(NC1CC1)c1ccc(S(=O)(=O)N2CCCC3(CCCCC3)C2)cc1`, the IC50 is 6.79 µM (inactive).
In the case of `COc1ccc(C(=O)/C=C/C(=O)N(CC(=O)NC2CCCCC2)Cc2ccc(F)cc2)c(O)c1`, the IC50 was 2.12 µM.
As for `CC(C)=CCCC1(C)C=Cc2c(c(C)cc3c2[nH]c2cc(O)ccc23)O1` (stereo unspecified), the IC50 is 6.04 µM (inactive).
For the compound `Cc1ccc(CNCc2cc3c(C(C)(C)C)nn(-c4ccccc4)c3[nH]c2=O)cc1`, the IC50 is 7.24 µM (inactive).
As to `OC(CNCCc1ccc(C(F)(F)F)cc1)COc1cccc2ccccc12` (stereo unspecified), the IC50 is < 0.16 µM (inactive).
